Laboratory results taken from patent publication US8314140B2, “4-hydroxythiobenzamide derivatives of drugs” (Antibe Therapeutics Inc., priority 2006, dated 2012).

Tested on: human platelet cAMP
Test: Human platelet cAMP concentrations
Type: cell-based
Conditions: 3-100 μM, 10 minutes, IBMX 0.5 mM; versus vehicle; FIG. 21
Experimental: Platelet-rich plasma (PRP) was prepared as above. Aliquots of 400 μL of PRP were placed in glass tubes which contained IBMX (isobutyl-1-methylxanthine; 0.5 mM), an non-selective phosphodiesterase inhibitor. […] As a positive control, some aliquots of platelets were treated with forskolin (10 μM), a known stimulus of adenylate cyclase. Ten minutes later, the samples of PRP were centrifuged at 9,000 g for 2 min and the supernatant was discarded. The pellet was resuspended in buffer, sonicated for 2 min, then cAMP concentrations were determined using a specific enzyme-linked immunosorbent assay (Cayman Chemical Co., Ann Arbor, Mich., USA). Experiments were repeated 4-6 times for each concentration of each drug.

CCC(C)(C)C(=O)O[C@H]1C[C@@H](C)C=C2C=C[C@H](C)[C@H](CC[C@H]3C[C@H](OC(=O)CCC(=O)Oc4ccc(C(N)=S)cc4)CC(=O)O3)[C@H]21 [Compound I, Succinic acid 2-{2-[8-(2,2-dimethyl-butyryloxy)-2,6-dimethyl-1,2,6,7,8,8a-hexahydro-naphthalen-1-yl]-ethyl}-6-oxo-tetrahydro-pyran-4-yl ester 4-thiocarbamoyl-phenyl ester]
platelet cAMP: significant increase in platelet cAMP at concentrations of 10, 30 and 100 μM
